Columns and labels:
[1] = tested on: SUMOylation of His-RanGap (SUMO-E1 (SAE), SUMO-E2 (UBC9), GST-SUMO); assay: HTRF assay measuring increase in SUMOylation of His-RanGap; format: biochemical; conditions: His-RanGap substrate; HTRF 665/620 ratio; 30 min at room temperature; triplicate
Description: Assay Measuring Increase in SUMOylation of his-RanGap.
We utilized an HTRF assay containing SUMO-E1 (SAE), SUMO-E2 (UBC9), GST-SUMO and His-RanGap, a known SUMO substrate, as well as the respective fluorescent antibodies. The assay was run in 1536-well plate format and the selected activators were chosen based on their ability to increase the FRET signal over a baseline level. In 1536-well white plates, 2 μl of phosphate buffered saline (assay buffer) was dispensed into columns 1 and 2, and 2 μl of Mixture 1 (37.5 nM E1 and 100 nM His-RanGap-1) in assay buffer (50 mM Tris-HCl pH 7.4, 0.3 mM DTT, 10 mM MgCl2, 0.005% Tween-20), was dispensed into columns 3-48. Using a pintool, 70 nl of 2 mM compounds in DMSO was dispensed to columns 5-48 and 70 nl of DMSO was dispensed to columns 1-4. Using the Thermo Scientific MultiDrop Combi, 2 μL of Mixture 2 (20 mM ATP, 12.5 nM E2 and 30 nM GST-SUMO in buffer) was dispensed to all wells and incubated for 30 min. at room temperature followed by 1 μl of 500 mM KF. Plates were read on a PheraStar in a HTRF mode (Ex: 337 nm; Em: 620/665 nm). The ratio of fluorescence 665 over 620 was utilized as a readout of the assay. Increase in SUMOylation was calculated by comparison to baseline level. Measurements were done in triplicate.

CSM14.1 neuronal cells = assay: Rescue of CSM14.1 neurons from thapsigargin-induced cell death (ATPlite); format: cell-based; conditions: Rattus norvegicus, Neuron; 15 μM thapsigargin, 20 h; 10 μM compound, 2 h preincubation; cellular ATP content; read-out: % CSM14.1 Cell Viability after treatment with 15 μM TG in Presence of 10 μM compound
From the text: Ability of Compounds to Rescue CSM14.1 Neurons from Thapsigargin-Induced Cell Death.
To assess the ability of the compounds to rescue neurons from ER stress-induced cell death, the rat striatal neuroprogenitor cell line CSM14.1 was used. Endoplasmic reticulum (ER) stress has been established as the major cause of neuronal loss in stroke, ischemia, and neurodegeneration (Tajiri, S.; Oyadomari, S.; Yano, S.; Morioka, M.; Gotoh, T.; Hamada, J. I.; Ushio, Y.; Mori, M. Cell Death Differ. 2004, 11, 403-415; Kohno, K.; Higuchi, T.; Ohta, S.; Kumon, Y.; Sakaki, S. Neurosci. Lett. 1997, 224, 17-20; ladecola, C.; Zhang, F.; Casey, R.; Nagayama, M.; Ross, M. E. J. Neurosci. 1997, 17, 9157-9164). Thus, we used the known ER stress-causing agent thapsigargin (TG) to model the compromised state in vitro. TG causes 100% cell death in most cases, and compounds were assessed for neuroprotection by measuring cell viability when dosed at 10 μM. CSM14.1 cells were recovered from cultures by trypsinization and plated in 96-well plates and incubated overnight at 32° C. 5 μl of test compound was added to achieve a final concentration of […]. Salubrinal and DMSO without compound were used as positive and negative controls, respectively. After 2 h of preincubation, TG-containing DMEM was added to give a final concentration of 15 μM and incubated for an additional 20 h. Cell viability was assessed by a cellular ATP content assay (ATPlite, PerkinElmer Life Sciences).

SMILES	% INCREASE IN SUMOylation over endogenous baseline level [1]	viability at 10 µM (CSM14.1 neuronal cells) [%]
Cc1ccc2sc(NNC(=O)c3cc(=O)c4ccccc4o3)nc2c1C [Compound B1, N′-(4,5-dimethylbenzo[d]thiazol-2-yl)-4-oxo-4H-chromene-2-carbohydrazide]	C (C = 31%-40% increase)	40 to 50
Cc1cc(C)c2nc(NNC(=O)c3cc(=O)c4ccccc4o3)sc2c1 [Compound B2, N′-(4,6-Dimethylbenzo[d]thiazol-2-yl)-4-oxo-4H-chromene-2-carbohydrazide]	C (C = 31%-40% increase)	51 to 60
COc1cccc2sc(NNC(=O)C3COc4ccccc4O3)nc12 (stereo not drawn) [Compound B3, N′-(4-methoxybenzo[d]thiazol-2-yl)-2,3-dihydrobenzo[b][1,4]dioxine-2-carbohydrazide]	A (A = 10%-20% increase)	51 to 60

— patent US20200190077A1, “NEUROPROTECTIVE HYDRAZIDES” (priority 2018, published 2020)
